# Measurements published in patent US20260284082A1, “TARGETING THE PANX1-P2Y2R-TRPV4 PATHWAY TO TREAT LUNG ISCHEMIA-REPERFUSION INJURY” (UNIVERSITY OF VIRGINIA PATENT FOUNDATION, priority 2023, published 2026).
# Legend:
# [1] = test system: pulmonary endothelium of small PAs; assay: Baseline endothelial Ca2+ signaling in en face small PAs after lung IR (Fluo-4 confocal imaging); assay type: cell-based, mice
# Experimental: (§1) Murine lung IR model: A well-established left lung IRI model involving temporary in vivo ligation of the left hilum (pulmonary artery, vein, and airway) was used.^6 Briefly, mice were anesthetized with inhaled isoflurane, intubated, ventilated with room air at 150 strokes/min with a tidal volume of […] (Harvard Apparatus Co, South Natick, MA), and heparinized (20 U/kg: Hospira Inc, Lake Forest, IL). An anterolateral thoracotomy was performed through the fourth intercostal space to expose the left hilum. A 6-0 Prolene suture (Ethicon. Somerville, NJ) was passed around the left hilum, and the suture ends were passed through a 5-mm length of polyethylene (PE)-50 tubing. A surgical clip was used to fashion a Rummel tourniquet to provide temporary occlusion of the left hilar structures. The thoracotomy was closed, anesthesia was weaned, and analgesia was administered (intraperitoneal buprenorphine. 0.2 mg/kg). Animals recovered in their cages during the 1-hour ischemic period, after which they were anesthetized again and intubated, the Rummel tourniquet was removed, and the thoracotomy was closed. Animals were again extubated, recovered in their cage, and monitored during the 2-hour reperfusion period. Sham animals underwent the same surgical procedure except that application of the Rummel tourniquet to induce ischemia was omitted; thus, these animals were perfused for a total of 3 hours.
# Ca^2+ imaging in Pas: Ca^2+ imaging in small Pas was performed as previously described.8 Fourth-order, small (~50 μm diameter) Pas (see FIG. 1B) were dissected from left lungs in cold HEPES-buffered physiological salt solution (HEPES-PSS; 10 mM HEPES, 134 mM NaCl, 6 mM KCl, 1 mM MgCl2 hexahydrate, 2 mM CaCl2) dihydrate, and 7 mM dextrose; pH adjusted to 7.4 using 1 M NaOH). […] Fluo-4 was excited using a 488-nm solid-state laser, and emitted fluorescence was captured using a 525/36-nm band-pass filter. […] Baseline Ca^2+ signaling activity was recorded in the absence of CPA. […]
# TRPV4EC channels = assay: TRPV4 sparklet activity in endothelium of small PAs after lung IR (in presence of CPA); assay type: cell-based, mice
# Experimental: as §1, with “Sham animals underwent the same surgical procedure except that application of the Rummel tourniquet to induce ischemia was omitted; thus, these animals were perfused for a total of 3 hours.” left out
# Ca^2+ imaging in Pas: Ca^2+ imaging in small Pas was performed as previously described.8 Fourth-order, small (~50 μm diameter) Pas (see FIG. 1B) were dissected from left lungs in cold HEPES-buffered physiological salt solution (HEPES-PSS; 10 mM HEPES, 134 mM NaCl, 6 mM KCl, 1 mM MgCl2 hexahydrate, 2 mM CaCl2) dihydrate, and 7 mM dextrose; pH adjusted to 7.4 using 1 M NaOH). […] Fluo-4 was excited using a 488-nm solid-state laser, and emitted fluorescence was captured using a 525/36-nm band-pass filter. […] Baseline Ca^2+ signaling activity was recorded in the absence of CPA.
# TRPV4 sparklets were assessed as increases in fluorescence relative to baseline fluorescence, obtained by averaging 10 quiescent images prior to stimulation. […]
# TRPV4 = conditions: cited from earlier work
# [2] = ARC 10 μmol/L, small PAs of C57BL6/J mice
Compound,"increase in baseline endothelial Ca2+ signals after lung IR ([1]; GSK219 100 nM, small PAs of control mice, 1 h ischemia + 2 h reperfusion)","IR-induced increase in TRPV4EC sparklet activity (TRPV4EC channels; GSK219, CPA 20 μM present, small PAs after lung IR)",reversibility of TRPV4 inhibition (TRPV4),"lung IR-induced increase in baseline endothelial Ca2+ signaling activity [1, 2]",lung IR-induced increase in TRPV4EC sparklet activity (TRPV4EC channels; [2])
"O=C(NC1(c2ccccc2)CC1)c1c(CN2CCC(N3CCCCC3)CC2)c(-c2cccc(C(F)(F)F)c2)nc2cc(Br)ccc12 [GSK219, GSK2193874]",completely abolished,inhibited,reversible,–,–
"Cc1ccc2c(c1)C=Cc1cc(C)ccc1C2c1cn(Cc2ccc(C(=O)Nc3nn[nH]n3)o2)c(=O)[nH]c1=S [ARC, AR-C 118925XX]",–,–,–,abolished,inhibited
